{
  "source": "patent US20210030758A1",
  "about": "“TREATMENT OF CANCERS HAVING DRIVING ONCOGENIC MUTATIONS” (G1 Therapeutics, Inc., priority 2018, published 2021)",
  "key": {"[1]": {"test": "thermal stress stability of solid form", "type": "physicochemical", "conditions": "60° C. for 7 days", "experimental": "(§1) Form B is stable under thermal stress of 60° C. for 7 days. […] In one embodiment isolated Compound IA Form B is stable for at least about 6, 7, 8, 9, 10, 11, 12, 14, 16, 18, 20, 22, or 24 months."}, "[2]": {"test": "long-term stability study of solid form", "type": "physicochemical", "conditions": "25° C. and 60% relative humidity", "experimental": "as §1"}, "[3]": {"test": "dynamic vapor sorption experiment", "type": "physicochemical", "conditions": "exposure to 90% relative humidity"}, "NSCLC PDX models": {"test_system": "NSCLC PDX models", "test": "NSCLC PDX model panel, tumor growth inhibition", "type": "in vivo", "conditions": "for sensitivity of PDX models by genetic alteration: 100 mg/kg", "experimental": "NSCLC PDX models (n=60) were treated for up to 28 days with daily oral doses of vehicle or Compound 1 (100 mg/kg). Tumor growth inhibition (TGI) was calculated when tumors reached pre-specified tumor burden or on day 28. Genetic alterations from pre-treated samples were evaluated using FoundationOne. 58% TGI was used as the responder/non-responder cutoff for correlation analysis."}, "[4]": {"test_system": "EML4-ALK NSCLC PDX tumors (Champions PDX model CTG-0852)", "type": "in vivo", "conditions": "single agents, oral once daily, after 60 days; Compound I 50 mg/kg, crizotinib 20 mg/kg"}, "[5]": {"test_system": "LC2/ad non-small cell lung cancer cells expressing an oncogenic CCDC6-RET fusion", "test": "LC2/ad cell proliferation by CellTiter-Glo", "type": "cell-based", "experimental": "LC2/ad non-small cell lung cancer cells expressing an oncogenic CCDC6-RET fusion were dosed with increasing concentrations of Compound 1, a RET inhibitor selected from pralsetinib (BLU-667) or agerafenib (RXDX-105), or RET inhibitor+300 nM Compound 1. Cell proliferation was measured by CellTiter-Glo after six days."}},
  "data": [
    {"compound": "CC(C)N1CCN(c2ccc(Nc3ncc4cc5n(c4n3)C3(CCCCC3)CNC5=O)nc2)CC1", "note": "[Compound IA Form B]", "values": [
      {"measurement": "stability under thermal stress", "setting": "[1]", "result": "stable"},
      {"measurement": "long-term stability, time stable", "setting": "[2]", "result": "at least 1 year"},
      {"measurement": "solid form after dynamic vapor sorption", "setting": "[3]", "result": "remained in Form B"}
    ]},
    {"compound": "CC(C)N1CCN(c2ccc(Nc3ncc4cc5n(c4n3)C3(CCCCC3)CNC5=O)nc2)CC1", "note": "[Compound I]", "values": [
      {"measurement": "median TGI for adenocarcinoma", "setting": "NSCLC PDX models; NSCLC PDX models, adenocarcinoma, 100 mg/kg daily oral, up to 28 days", "result": 73, "unit": "%"},
      {"measurement": "median TGI for squamous cell carcinoma", "setting": "NSCLC PDX models; NSCLC PDX models, squamous cell carcinoma, 100 mg/kg daily oral, up to 28 days", "result": 66, "unit": "%"},
      {"measurement": "sensitivity of PDX models by genetic alteration", "setting": "NSCLC PDX models; models with genetic alterations such as KRAS and EGFR", "result": "increased sensitivity"},
      {"measurement": "sensitivity of PDX models by genetic alteration", "setting": "NSCLC PDX models; models with genetic alterations such as RB1", "result": "resistance"},
      {"measurement": "TGI", "setting": "[4]", "result": 87, "unit": "%"}
    ]},
    {"compound": "CO[C@]1(C(=O)N[C@@H](C)c2ccc(-n3cc(F)cn3)nc2)CC[C@H](c2nc(C)cc(Nc3cc(C)[nH]n3)n2)CC1", "note": "[pralsetinib, Pralsetinib]", "values": [
      {"measurement": "300 nM relative to the IC50 for cellular proliferation", "setting": "[5]", "result": "> 10", "unit": "fold"}
    ]}
  ]
}
